Measurements published in PubChem BioAssay AID220 (DTP/NCI, 2004).
Where “and” joins values, the source holds several entries; their conditions need not be identical. Equal entries are not always repeated. Records with an inconclusive call do not appear. Starred links: 1 amine or outer side, 2 acyl side, 3 side chain; linkers in the order of their positions; H or OH if unused. Non-standard residues stand in square brackets, D forms with d. Residues, ends and D or L forms follow the SMILES beside them. *: point of attachment. X2 = CCC(=O)CC1CC(C)CC(C(=O)[*:2])N1[*:1]; X1 = CCCCCCCCC(C)C(=O)*; Aib = CC(C)(N)C(=O)O; X3 = CC(CN(C)CCO)N*

System: CD8F1 mice, subcutaneous mammary adenocarcinoma, T/C%
Assay: NCI In Vivo Anticancer Drug Screen. Data for tumor model Mammary Adenocarcinoma CD8F1 (subcutaneous) in CD8F1
Conditions: higher = larger tumour
Method in brief: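 Compound-treated versus vehicle-treated mice with transplantable tumors; survival or tumor size compared as T/C.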

[1] = endpoint: median tumor weight (est.), dose: 50.0 mg/kg/injection, schedule: Q07DX005 (ip), vehicle: Klucel (hydroxypropylcellulose) (HPC)
[2] = endpoint: median tumor weight (est.), dose: 100.0 mg/kg/injection, schedule: Q07DX005 (ip), vehicle: Klucel (hydroxypropylcellulose) (HPC)
[3] = endpoint: median tumor weight (est.), dose: 200.0 mg/kg/injection, schedule: Q07DX005 (ip), vehicle: Klucel (hydroxypropylcellulose) (HPC)
[4] = endpoint: median tumor weight (est.), dose: 12.5 mg/kg/injection, schedule: Q07DX005 (ip), vehicle: saline with Tween-80
[5] = endpoint: median tumor weight (est.), dose: 25.0 mg/kg/injection, schedule: Q07DX005 (ip), vehicle: saline with Tween-80

Compound: CC1CC(C)CC(C)C(O)/C(C#N)=C/C=C/CC(C2CCCC2C(=O)O)OC(=O)CC(O)C(C)C1 (configuration not stated)
- T/C (endpoint: median tumor weight (est.), dose: 0.5 mg/kg/injection, schedule: Q07DX005 (ip), vehicle: Klucel (hydroxypropylcellulose) (HPC)): 71 % of control
- T/C (endpoint: median tumor weight (est.), dose: 1.0 mg/kg/injection, schedule: Q07DX005 (ip), vehicle: Klucel (hydroxypropylcellulose) (HPC)): 59 % of control
- T/C (endpoint: median tumor weight (est.), dose: 2.0 mg/kg/injection, schedule: Q07DX005 (ip), vehicle: Klucel (hydroxypropylcellulose) (HPC)): 71 % of control
- T/C (endpoint: median tumor weight (est.), dose: 3.0 mg/kg/injection, schedule: Q07DX005 (ip), vehicle: Klucel (hydroxypropylcellulose) (HPC)): 105 % of control
- T/C (endpoint: median tumor weight (est.), dose: 4.0 mg/kg/injection, schedule: Q07DX005 (ip), vehicle: Klucel (hydroxypropylcellulose) (HPC)): 114 % of control
- T/C (endpoint: median tumor weight (est.), dose: 6.0 mg/kg/injection, schedule: Q07DX005 (ip), vehicle: Klucel (hydroxypropylcellulose) (HPC)): 124 % of control
- T/C (endpoint: median tumor weight (est.), dose: 8.0 mg/kg/injection, schedule: Q07DX005 (ip), vehicle: Klucel (hydroxypropylcellulose) (HPC)): 36 % of control
- T/C (endpoint: median tumor weight (est.), dose: 12.0 mg/kg/injection, schedule: Q07DX005 (ip), vehicle: Klucel (hydroxypropylcellulose) (HPC)): 102 % of control
- T/C (endpoint: median tumor weight (est.), dose: 16.0 mg/kg/injection, schedule: Q07DX005 (ip), vehicle: Klucel (hydroxypropylcellulose) (HPC)): 14 % of control

Compound: CCCCCCCCC(C)C(=O)N1CCCC1C(=O)N1C(CC(=O)CC)CC(C)CC1C(=O)NC(C)C(=O)NC(C)(C)C(=O)NC(C)(C)C(=O)NC(C(=O)NC(C)C(=O)NC(C)(C)C(=O)NC(C)(C)C(=O)NC(C)CN(C)CCO)C(C)CC (configuration not stated) (X1-P[X2]A[Aib][Aib]IA[Aib][Aib]-X3; configuration not given here)
- T/C (endpoint: median tumor weight change, dose: 3.0 mg/kg/injection, schedule: Q01DX001 (ip), vehicle: saline with Tween-80): 100 % of control
- T/C (endpoint: median tumor weight change, dose: 3.12 mg/kg/injection, schedule: Q01DX001 (ip), vehicle: other): 123 % of control

Compound: COc1cccc2c1C(=N)c1c(O)c3c(c(O)c1C2=O)C[C@@](O)(C(C)=O)C[C@@H]3OC1CC(N)C(O)C(C)O1 (some centres not stated)
- T/C (endpoint: median tumor weight (est.), dose: 2.0 mg/kg/injection, schedule: Q07DX005 (ip), vehicle: saline): 53 % of control
- T/C (endpoint: median tumor weight (est.), dose: 2.97 mg/kg/injection, schedule: Q07DX005 (ip), vehicle: saline): 50 % of control
- T/C (endpoint: median tumor weight (est.), dose: 3.0 mg/kg/injection, schedule: Q07DX005 (ip), vehicle: saline): 115 % of control
- T/C (endpoint: median tumor weight (est.), dose: 4.45 mg/kg/injection, schedule: Q07DX005 (ip), vehicle: saline): 53 % of control
- T/C (endpoint: median tumor weight (est.), dose: 4.5 mg/kg/injection, schedule: Q07DX005 (ip), vehicle: saline): 96 % of control

Compound: CC1CN=C(c2ccc(NC(=O)c3ccc(C(=O)Nc4ccc(C5=NCC(C)N5)cc4)cc3)cc2)N1 (configuration not stated)
- T/C [1]: 51 % of control
- T/C [2]: 94 % of control
- T/C [3]: 36 % of control

Compound: CSc1cc(=O)n2c3ccccc3c3ccnc1c32
- T/C (endpoint: median tumor weight (est.), dose: 2.5 mg/kg/injection, schedule: Q07DX005 (ip), vehicle: saline with Tween-80): 77 % of control
- T/C (endpoint: median tumor weight (est.), dose: 5.0 mg/kg/injection, schedule: Q07DX005 (ip), vehicle: saline with Tween-80): 74 % of control
- T/C (endpoint: median tumor weight (est.), dose: 10.0 mg/kg/injection, schedule: Q07DX005 (ip), vehicle: saline with Tween-80): 74 % of control
- T/C (endpoint: median tumor weight (est.), dose: 20.0 mg/kg/injection, schedule: Q07DX005 (ip), vehicle: saline with Tween-80): 65 % of control
- T/C (endpoint: median tumor weight (est.), dose: 40.0 mg/kg/injection, schedule: Q07DX005 (ip), vehicle: saline with Tween-80): 119 % of control
- T/C (endpoint: median tumor weight (est.), dose: 80.0 mg/kg/injection, schedule: Q07DX005 (ip), vehicle: saline with Tween-80): 59 % of control

Compound: F[B-](F)(F)F
- T/C (endpoint: median tumor weight (est.), dose: 12.5 mg/kg/injection, schedule: Q07DX005 (ip), vehicle: gum acacia): 109 % of control
- T/C (endpoint: median tumor weight (est.), dose: 25.0 mg/kg/injection, schedule: Q07DX005 (ip), vehicle: gum acacia): 88 % of control
- T/C (endpoint: median tumor weight (est.), dose: 50.0 mg/kg/injection, schedule: Q07DX005 (ip), vehicle: gum acacia): 83 % of control
- T/C (endpoint: median tumor weight (est.), dose: 100.0 mg/kg/injection, schedule: Q07DX005 (ip), vehicle: gum acacia): 96 % of control
- T/C (endpoint: median tumor weight (est.), dose: 200.0 mg/kg/injection, schedule: Q07DX005 (ip), vehicle: gum acacia): 74 % of control
- T/C (endpoint: median tumor weight (est.), dose: 400.0 mg/kg/injection, schedule: Q07DX005 (ip), vehicle: gum acacia): 90 % of control

Compound: NC(=O)c1ncn(C2OC(CO)C(O)C2O)c1O (configuration not stated)
- T/C [1]: 85 % of control
- T/C [2]: 105 % of control
- T/C [3]: 72 % of control
- T/C (endpoint: median tumor weight (est.), dose: 400.0 mg/kg/injection, schedule: Q07DX005 (ip), vehicle: Klucel (hydroxypropylcellulose) (HPC)): 83 % of control

Compound: CCC[P+](c1ccccc1)(c1ccccc1)c1ccccc1
- T/C (endpoint: mean tumor weight, dose: 3.12 mg/kg/injection, schedule: Q07DX006 (ip), vehicle: saline with Tween-80): 211 % of control
- T/C (endpoint: mean tumor weight, dose: 6.25 mg/kg/injection, schedule: Q07DX006 (ip), vehicle: saline with Tween-80): 241 % of control
- T/C (endpoint: mean tumor weight, dose: 12.5 mg/kg/injection, schedule: Q07DX006 (ip), vehicle: saline with Tween-80): 40 % of control
- T/C (endpoint: mean tumor weight, dose: 25.0 mg/kg/injection, schedule: Q07DX006 (ip), vehicle: saline with Tween-80): 72 % of control
- T/C (endpoint: mean tumor weight, dose: 50.0 mg/kg/injection, schedule: Q07DX006 (ip), vehicle: saline with Tween-80): 38 % of control
- T/C (endpoint: median tumor weight (est.), dose: 3.12 mg/kg/injection, schedule: Q07DX005 (ip), vehicle: saline with Tween-80): 83 % of control
- T/C (endpoint: median tumor weight (est.), dose: 6.25 mg/kg/injection, schedule: Q07DX004 (ip), vehicle: saline with Tween-80): 112 % of control
- T/C (endpoint: median tumor weight (est.), dose: 6.25 mg/kg/injection, schedule: Q07DX005 (ip), vehicle: saline with Tween-80): 72 % of control
- T/C (endpoint: median tumor weight (est.), dose: 12.5 mg/kg/injection, schedule: Q07DX004 (ip), vehicle: saline with Tween-80): 172 % of control
- T/C [4]: 73 % of control
- T/C (endpoint: median tumor weight (est.), dose: 25.0 mg/kg/injection, schedule: Q07DX004 (ip), vehicle: saline with Tween-80): 183 % of control
- T/C [5]: 34 % of control
- T/C (endpoint: median tumor weight (est.), dose: 50.0 mg/kg/injection, schedule: Q07DX004 (ip), vehicle: saline with Tween-80): 104 % of control
- T/C (endpoint: median tumor weight (est.), dose: 50.0 mg/kg/injection, schedule: Q07DX005 (ip), vehicle: saline with Tween-80): 30 % of control

Compound: S=c1[nH]cc2cnccn12
- T/C [4]: 92 % of control
- T/C [5]: 105 % of control
- T/C (endpoint: median tumor weight (est.), dose: 100.0 mg/kg/injection, schedule: Q07DX005 (ip), vehicle: saline with Tween-80): 85 % of control
- T/C (endpoint: median tumor weight (est.), dose: 200.0 mg/kg/injection, schedule: Q07DX005 (ip), vehicle: saline with Tween-80): 56 % of control

Compound: CCOC(=O)C(N)CSC(=O)NC (configuration not stated)
- T/C (endpoint: median tumor weight change, dose: 100.0 mg/kg/injection, schedule: Q01DX001 (ip), vehicle: saline): 115 % of control
- T/C (endpoint: median tumor weight change, dose: 200.0 mg/kg/injection, schedule: Q01DX001 (ip), vehicle: saline): 81 % of control
- T/C (endpoint: median tumor weight change, dose: 250.0 mg/kg/injection, schedule: Q01DX001 (ip), vehicle: saline): 91 % of control and 111 % of control
- T/C (endpoint: median tumor weight change, dose: 400.0 mg/kg/injection, schedule: Q01DX001 (ip), vehicle: saline): 86 % of control
- T/C (endpoint: median tumor weight change, dose: 500.0 mg/kg/injection, schedule: Q01DX001 (ip), vehicle: saline): 53 % of control and 74 % of control
- T/C (endpoint: median tumor weight change, dose: 800.0 mg/kg/injection, schedule: Q01DX001 (ip), vehicle: saline): 96 % of control

Compound: CSC1SCC2C(=O)N(C)C(C(C)C)C(=O)OCC(NC(=O)c3cnc4ccccc4n3)C(=O)NC(C)C(=O)N(C)C1C(=O)N(C)C(C(C)C)C(=O)OCC(NC(=O)c1cnc3ccccc3n1)C(=O)NC(C)C(=O)N2C (configuration not stated)
- T/C (endpoint: mean tumor weight, dose: 7.5 micrograms/kg/injection, schedule: Q07DX005 (ip), vehicle: saline): 67 % of control
- T/C (endpoint: mean tumor weight, dose: 15.0 micrograms/kg/injection, schedule: Q07DX005 (ip), vehicle: saline): 83 % of control
- T/C (endpoint: median tumor weight (est.), dose: 7.5 micrograms/kg/injection, schedule: Q07DX005 (ip), vehicle: saline): 82 % of control
- T/C (endpoint: median tumor weight (est.), dose: 15.0 micrograms/kg/injection, schedule: Q07DX005 (ip), vehicle: saline): 67 % of control
- T/C (endpoint: median tumor weight (est.), dose: 30.0 micrograms/kg/injection, schedule: Q07DX005 (ip), vehicle: saline): 97 % of control
- T/C (endpoint: median tumor weight (est.), dose: 60.0 micrograms/kg/injection, schedule: Q07DX005 (ip), vehicle: saline): 117 % of control
- T/C (endpoint: median tumor weight (est.), dose: 120.0 micrograms/kg/injection, schedule: Q07DX005 (ip), vehicle: saline): 76 % of control

Compound: O=C1c2c(O)ccc(O)c2C(=O)c2c(NCCNCCO)ccc(NCCNCCO)c21
- T/C (endpoint: median tumor weight (est.), dose: 0.25 mg/kg/injection, schedule: Q07DX005 (ip), vehicle: acid diluted with saline): 106 % of control
- T/C (endpoint: median tumor weight (est.), dose: 0.5 mg/kg/injection, schedule: Q07DX005 (ip), vehicle: acid diluted with saline): 93 % of control
- T/C (endpoint: median tumor weight (est.), dose: 0.5 mg/kg/injection, schedule: Q07DX005 (ip), vehicle: water): 59 % of control
- T/C (endpoint: median tumor weight (est.), dose: 1.0 mg/kg/injection, schedule: Q07DX005 (ip), vehicle: acid diluted with saline): 82 % of control
- T/C (endpoint: median tumor weight (est.), dose: 1.0 mg/kg/injection, schedule: Q07DX005 (ip), vehicle: water): 112 % of control
- T/C (endpoint: median tumor weight (est.), dose: 2.0 mg/kg/injection, schedule: Q07DX005 (ip), vehicle: acid diluted with saline): 65 % of control
